In ChEMBL document CHEMBL4613303, “New Dihydrothiazole Benzensulfonamides: Looking for Selectivity toward Carbonic Anhydrase Isoforms I, II, IX, and XII” (ACS Med Chem Lett, 2020) one finds Ki data, which are given here for 13 molecules.

For the experiment, the target named is Carbonic anhydrase 9 (Homo sapiens, UniProt Q16790). Put plainly: Inhibition of recombinant human carbonic anhydrase 9 incubated for 6 hrs prior to testing measured for 10 to 100 secs by phenol red-based stopped-flow CO2 hydration assay.

Broadly, the Ki is a measure of affinity in units of concentration, obtained from inhibition or displacement.

In the case of `CCn1c(-c2ccc(Br)cc2)cs/c1=N/c1ccc(S(N)(=O)=O)cc1`, the inhibition constant (Ki) was 3.39 µM.
The value for `CCn1c(-c2ccc(C#N)cc2)cs/c1=N/c1ccc(S(N)(=O)=O)cc1` was 4.33 µM; that for `CCn1c(-c2cccc([N+](=O)[O-])c2)cs/c1=N/c1ccc(S(N)(=O)=O)cc1` was 0.214 µM; that for `CCn1c(-c2ccc([N+](=O)[O-])cc2)cs/c1=N/c1ccc(S(N)(=O)=O)cc1` was 4.32 µM.
The value for `CCn1c(-c2ccc(C)cc2)cs/c1=N/c1ccc(S(N)(=O)=O)cc1` was 0.358 µM; that for `CCn1c(-c2ccccc2)cs/c1=N/c1ccc(S(N)(=O)=O)cc1` was 0.248 µM.
The value for `CCn1c(-c2ccc(Cl)cc2)cs/c1=N/c1ccc(S(N)(=O)=O)cc1` was 0.109 µM; that for `CCn1c(-c2cccs2)cs/c1=N/c1ccc(S(N)(=O)=O)cc1` was 0.297 µM; that for `CCn1c(-c2ccc(F)cc2F)cs/c1=N/c1ccc(S(N)(=O)=O)cc1` was 0.144 µM.
With `CCn1c(-c2ccc(-c3ccccc3)cc2)cs/c1=N/c1ccc(S(N)(=O)=O)cc1`, the Ki was determined as 4.31 µM.
Regarding `CCn1c(-c2ccc(F)cc2)cs/c1=N/c1ccc(S(N)(=O)=O)cc1`, the inhibitory constant (Ki) was found to be 3.93 µM.
Take `CCn1c(-c2ccc(OC)cc2)cs/c1=N/c1ccc(S(N)(=O)=O)cc1`: the Ki was determined as 0.205 µM.
The result for `CCn1c(-c2ccc(Cl)cc2Cl)cs/c1=N/c1ccc(S(N)(=O)=O)cc1` reads 0.225 µM.
